The values that follow come from US20260176274A1, “ENAMINE N-OXIDE TOOLS FOR TARGET IDENTIFICATION APPLICATIONS” (DANA-FARBER CANCER INSTITUTE, INC., priority 2022, published 2026).

One experiment has as its target T1, BRD4 (Homo sapiens, UniProt O60885).
T1 construct: In Cellulo BARS Labeling of Endogenous Target Proteins; endogenous in cells; host or cells: HEK293T
Put plainly: In cellulo BARS labeling in live HEK293T cells, immunoblot against BRD4. The class given is cell-based. Particulars: probe 5 μM, B2(OH)4 100 μM 10 min. As to the method: HEK293T cells were cultured in DMEM containing 10% FBS (Sigma), 100 units/mL penicillin, and 0.1 mg/mL streptomycin (Sigma) in a humidified chamber at 37° C. under an ambient atmosphere with 5% CO2. After culturing to >80% confluency in 150 mm plates, the plates were removed from the incubator, the media was aspirated, and the cells were trypsinized at 37° C. with 0.25% trypsin, 0.1% EDTA in HBSS (3 mL). After 3 min, complete growth medium (7 mL) was added to the detached cells, and the cell suspension was transferred to a 50 mL centrifuge tube. Cells were pelleted (400×g, 4 min, 23° C.) and washed with 2×20 mL PBS, pH 7.4. At this point, the density of the cell suspension in PBS was determined by the trypan blue exclusion method. The cells were pelleted once more, and the volume of PBS was adjusted to produce a cell suspension with a final density of 2×10^7 cells/mL. The cell suspension was aliquoted into 2 mL microcentrifuge tubes (3×1 mL, 2×10^7 cells each). […] Competitor 21′ (50 μM final concentration, from a 500 mM stock in DMSO) was also added to the third tube. The samples were incubated at 37° C. with end-over-end rotation. After 2 h of incubation, the cells were pelleted (400×g, 4 min, 23° C.) and washed once with PBS, pH 7.4.
For orientation: A western blot detects proteins with antibodies after separation by electrophoresis.

In experiment [1] the test system is BRD2/3/4. As to the kind of experiment: Pulldown-MS chemoproteomics in HEK293T cell lysate, (+)-JQ1 probe. The class given is binding, human. Particulars: filter 1 quantified peptide in 3 replicates; against competitor or enantiomer controls. As to the method: (§1) The same procedure as the “Streptavidin pull-down” was followed up to the wash steps. After the final wash, the supernatant was completely removed. Formamide elution buffer (95% v/v formamide, 5% v/v 100 mM sodium acetate, pH 10, 50 μL) was then added to the beads with gentle mixing. The beads were heated to 95° C. for 10 min, pelleted, and the supernatant was removed while hot and then allowed to cool to rt. The formamide elution was repeated a second time for a combined eluate volume of approximately 100 μL. The eluate samples were then submitted to the Dana-Farber TPD Core facility for further processing. […]
(§2) Peptides were analyzed on an Ultimate™ 3000 RSLCnano system coupled to a Tribrid series mass spectrometer (Thermo Fisher Scientific™). […]
(§3) RAW file processing, false discovery rate filtering (<1%), and protein roll-up and MS1 intensity-based label-free quantification (Minora algorithm) were achieved using Proteome Discoverer 2.5 (Thermo Fisher Scientific™). […] Peptides were quantified by precursor ion abundance and summed across proteins.
(§4) Proteins were filtered to include those with three or more unique peptides quantified across four replicate treatments, unless otherwise stated. […] All peptides of target proteins quantified at the single peptide level were manually inspected to ensure accuracy in quantification.

For experiment [2], the target named is T2, BRD2/3/4 (Homo sapiens, UniProt O60885).
T2 construct: In Vitro BARS Labeling of Endogenous Target Proteins in Cell Lysate; endogenous in cells; host or cells: HEK293T lysate
Described as above. The class given is binding. Particulars: filter 3 quantified peptides in 3 replicates. As to the method:
as §1, §2, §3, §4

SMILES strings stand for the structures.

Take `C#CCCC[N+](C)([O-])/C(Br)=C/C(Cl)CCCC(=O)NCCCCCCNC(=O)C[C@@H]1N=C(c2ccc(Cl)cc2)c2c(sc(C)c2C)-n2c(C)nnc21` (stereo partly drawn) [22′a, (Z)-1-Bromo-3-chloro-7-((6-(2-((S)-4-(4-chlorophenyl)-2,3,9-trimethyl-6H-thieno[3,2-f][1,2,4]triazolo[4,3-al][1,4]diazepin-6-yl)acetamido)hexyl)amino)-N-methyl-7-oxo-N-(pent-4-yn-1-yl)hept-1-en-1-amine oxide]: the “target identification in live HEK293T cells (BRD4)” value on BRD4 is “successfully executed”. The chemoproteomics hits result with BRD2/3/4 [1] was “BRD2/3/4 were identified as hits”. In addition, at BRD2/3/4 [2], the chemoproteomics protein identified entry is “BRD4 was identified”.
